Measured values from patent publication US10274456B2, “Method and system for sensing” (Ramot at Tel-Aviv University Ltd., priority 2013, dated 2019).

How the values were obtained:
Type in all cases: cell-based, Human
Jurkat cells [1] = test: Extracellular ROS level of drug-treated Jurkat cells measured with the nanowire biosensor; conditions: t=6 hours, normalized by the number of live cells
Description: For measurements of cellular metabolites/activity, cells were cultured in the chip, namely, in the culture compartment thereof (see, for example, FIG. 1A), while placing the chip in an incubator during measurements. A sample was introduced to the sensing compartment at 20 μl min^-1 by using a syringe pump. Human T lymphocytes, Jurkat (TIB-152, ATCC), were cultured and incubated at 37° C. under a humidified 5% CO2 atmosphere. The culture medium used was RPMI 1640 medium (52400, GIBCO) with 10% fetal bovine serum (FBS; 04-001-1A, Biological Industry) and 1% penicillin/streptomycin (15140, GIBCO). During experiments, cells were re-suspended in phenol red-free medium (11835-063, GIBCO) in the presence or absence of a drug, either methotrexate hydrate (MTX; […], SIGMA) or 2-deoxy-D-glucose (2DG; […], SIGMA), at a density of 1×10^6 cells/ml. Cellular samples were dispensed into the wells of the sensing chip (see FIGS. 1A and 1B) in an incubator. 24-hour monitoring of metabolic activity of drug-treated Jurkat cells by measuring extracellular ROS levels using the nanowire biosensor, was performed and the obtained data is presented in FIGS. 6A-G. Measured ROS levels were normalized by the number of live cells.

Jurkat cells [2] = test: Cell proliferation rate / viability of drug-treated Jurkat cells (trypan blue count); conditions: for cell viability: 24-hour viability observation
Description: During experiments, cells were re-suspended in phenol red-free medium (11835-063, GIBCO) in the presence or absence of a drug, either methotrexate hydrate (MTX; […], SIGMA) or 2-deoxy-D-glucose (2DG; […], SIGMA), at a density of 1×10^6 cells/ml. Cell viability was estimated by using a hemocytometer to count trypan blue-stained cells. Relative cell count, presented in FIGS. 6B and 6E-6F, is a ratio of the cell count at t=24 hours to the initial cell count.

Jurkat cells [3] = test: pH sensing of drug-treated Jurkat cells (reductant-added medium); conditions: compared with the control
Description: A conversion of the modified FET into a pH sensor was achieved by using a reductant-added solution. After supplementing a culture medium with 0.1% v/v DEHA to reduce the modified FET surface, surface proton density varied by protonation or by deprotonation dominantly changes the measured current.
For pH sensing, 0.1% v/v DEHA was supplemented in the sensing medium to reduce the 9,10-anthraquinone monolayer on the FET surface to obtain 9,10-dihydroxyanthracene (see also FIG. 1d) and H2O2 simultaneously. Therefore, no significant amount of H2O2 in a DEHA-supplemented medium altered a measured signal. As a result, surface proton density, varied by protonation or by deprotonation, dominantly changes an acquired signal.

Jurkat cells [4] = test: Extracellular lactate level of drug-treated Jurkat cells (lactate oxidase, nanowire biosensor); conditions: after 24 hours
Description: For lactate sensing, 0.1 unit/ml of lactate oxidase (LOX; L0638, SIGMA) was added in phenol red-free medium to convert lactate to pyruvate and H2O2 before lactate reaches the FET array (as depicted in FIG. 1D).
During experiments, cells were re-suspended in phenol red-free medium (11835-063, GIBCO) in the presence or absence of a drug, either methotrexate hydrate (MTX; M8407, SIGMA) or 2-deoxy-D-glucose (2DG; D6134, SIGMA), at a density of 1×10^6 cells/ml.
The correlation between extracellular lactate level of 2DG-treated Jurkat cells and a resultant cell proliferation rate after 24 hours was investigated.

SMILES | ROS level (Jurkat cells [1]) | cell viability (Jurkat cells [2]) | pH of cultured cells (Jurkat cells [3]) | cell proliferation rate (Jurkat cells [2]; after 24 hours, relative cell count) | cellular lactate secretion (Jurkat cells [4])
CN(Cc1cnc2nc(N)nc(N)c2n1)c1ccc(C(=O)N[C@@H](CCC(=O)O)C(=O)O)cc1 [MTX, methotrexate hydrate] | noticeable decrease | anti-proliferative activity | – | – | –
O=CC[C@@H](O)[C@H](O)[C@H](O)CO [2DG, 2-deoxy-D-glucose] | noticeable decrease | anti-proliferative activity | more basic than the control | reduced proliferation rate | decreased
